Reference: patent US20230391760A1, “HETEROCYCLIC GLP-1 AGONISTS” (Gasherbrum Bio, Inc., priority 2020, published 2023)

Target: GLP-1 Receptor (Homo sapiens, UniProt P43220)
Test: GLP-1R agonist cAMP stimulation assay (HEK293/GLP1R/CRE-LUC cells, cAMP dynamic 2 Kit)
Assay type: cell-based
Conditions: HEK293/CRE-Luc cell line stably expressing the GLP-1 Receptor, 30 min at 37° C.
Method: Activation of GLP-1 receptor is known to stimulate cyclic AMP (cAMP) production in cells which indicates primary coupling to the Gαs subunit of the G protein heterotrimeric complex. […] To optimize functional activity directed toward Gαs coupling, a HEK293/CRE-Luc cell line developed by HDB stably expressing the GLP-1 Receptor was used. 200×concentration of compound working solutions were prepared (Agilent Technologies Bravo) with 1/2 log serial dilution in 384-well Echo LDV plate (Labcyte, Cat #LP-0200). 50 nL/well 200× concentration of compound working solutions were moved to 384-well white low volume plate (Greiner,Cat #784075) using Labcyte ECHO550. 1×10^5 cells/mL HEK293/GLP1R/CRE-LUC(HD Biosciences) cell suspensions prepared with assay buffer[DPBS containing 0.5 mM IBMX(Sigma, Cat #15879) and 0.1% BSA (GENVIEW, Cat #FA016-100 g)], 10 uL cell suspensions were added to each well of previous generated assay plate which already contains 50 nl compound at 200×concentration using ThermoFisher Multidrop Combi (1000 cells/well). Seal the plate and incubate at 37° C. with 5% CO2 for 30 min. After incubation the cAMP assay signal was generated using cAMP dynamic 2 Kit (Cisbio). 5 μL cAMP-d2 working solution was added to each well, followed with 5 μL Anti-cAMP antibody-cryptate working solution added to each well using ThermoFisher Multidrop Combi. Incubate at room temperature for 1 hour protected from light.

GLP-1 Receptor, sequence (P43220 24-463, species assumed): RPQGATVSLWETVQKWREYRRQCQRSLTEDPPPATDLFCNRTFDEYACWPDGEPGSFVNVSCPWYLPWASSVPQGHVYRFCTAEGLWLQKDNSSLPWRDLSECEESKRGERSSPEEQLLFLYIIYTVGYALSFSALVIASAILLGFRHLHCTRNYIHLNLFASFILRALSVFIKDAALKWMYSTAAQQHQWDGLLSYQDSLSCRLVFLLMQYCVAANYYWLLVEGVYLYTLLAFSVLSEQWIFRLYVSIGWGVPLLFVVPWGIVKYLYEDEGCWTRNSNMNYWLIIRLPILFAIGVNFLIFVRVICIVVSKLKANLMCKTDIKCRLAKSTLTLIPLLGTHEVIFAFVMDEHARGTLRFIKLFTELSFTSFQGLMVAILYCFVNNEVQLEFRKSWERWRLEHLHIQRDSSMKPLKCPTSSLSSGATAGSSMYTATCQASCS

Row | Compound | EC50
1 | 4-[2-(4-chloro-2-fluorophenyl)-2-methyl-2H-1,3-benzodioxol-4-yl]-1-[(3-{[(2S)-oxolan-2-yl]methyl}-6-[5-(trifluoromethyl)-4H-1,2,4-triazol-3-yl]-3H-imidazo[4,5-b]pyridin-2-yl)methyl]piperidine [Compound 247a] | 3.4 nM
2 | CC1(c2ccc(Cl)cc2F)Oc2cccc(C3CCN(Cc4nc5cc(-c6nnc(C(F)(F)F)[nH]6)cnc5n4C[C@@H]4CCO4)CC3)c2O1 (mixture of isomers) [Compound 224a, 4-[2-(4-chloro-2-fluorophenyl)-2-methyl-2H-1,3-benzodioxol-4-yl]-1-[(3-{[(2S)-oxetan-2-yl]methyl}-6-[5-(trifluoromethyl)-4H-1,2,4-triazol-3-yl]-3H-imidazo[4,5-b]pyridin-2-yl)methyl]piperidine] | 0.018 nM
3 | CC1(c2ccc(Cl)cc2F)Oc2cccc(C3CCN(Cc4nc5cc(-c6nnc(C(F)(F)F)[nH]6)ccc5n4C[C@@H]4CCO4)CC3)c2O1 (mixture of isomers) [Compound 229a, 2-({4-[2-(4-chloro-2-fluorophenyl)-2-methyl-2H-1,3-benzodioxol-4-yl]piperidin-1-yl}methyl)-1-{[(2S)-oxetan-2-yl]methyl}-5-[5-(trifluoromethyl)-4H-1,2,4-triazol-3-yl]-1H-1,3-benzodiazole] | 0.046 nM
4 | CC1(c2ccc(Cl)cc2F)Oc2cccc(C3CCN(Cc4nc5cc(-c6noc(=O)[nH]6)ccc5n4C[C@@H]4CCO4)CC3)c2O1 (mixture of isomers) [Compound 239a, 3-(2-((4-(2-(4-chloro-2-fluorophenyl)-2-methylbenzo[d][1,3]dioxol-4-yl)piperidin-1-yl)methyl)-1-(((S)-oxetan-2-yl)methyl)-1H-benzo[d]imidazol-5-yl)-1,2,4-oxadiazol-5(4H)-one] | 0.071 nM
5 | CC1(c2ccc(Cl)cn2)Oc2cccc(C3CCN(Cc4nc5cc(-c6n[nH]c(C(F)(F)F)n6)cnc5n4C[C@@H]4CCO4)CC3)c2O1 (mixture of isomers) [Compound 333a, 5-chloro-2-(2-methyl-4-{1-[(3-{[(2S)-oxetan-2-yl]methyl}-6-[5-(trifluoromethyl)-4H-1,2,4-triazol-3-yl]-3H-imidazo[4,5-b]pyridin-2-yl)methyl]piperidin-4-yl}-2H-1,3-benzodioxol-2-yl)pyridine] | 0.03 nM
6 | O=C(Nc1ccc2c(c1)nc(CN1CCC(c3cccc(OCc4ccc(Cl)cc4F)n3)CC1)n2C[C@@H]1CCO1)C1CCCOC1 (single isomer, unassigned) [Compound 154b] | 0.074 nM
7 | O=C(Nc1ccc2c(c1)nc(CN1CCC(c3cccc(OCc4ccc(Cl)cc4F)n3)CC1)n2C[C@@H]1CCO1)C1CCCOC1 (single isomer, unassigned) [Compound 154c] | 1.5 nM
8 | CC1(c2ccc(Cl)cc2F)Oc2cccc(C3CCN(Cc4nc5cc(-c6nnc(C(F)(F)F)[nH]6)cnc5n4C[C@@H]4CCO4)CC3)c2O1 (single isomer, unassigned) [Compound 224b] | 1.7 nM
9 | CC1(c2ccc(Cl)cc2F)Oc2cccc(C3CCN(Cc4nc5cc(-c6nnc(C(F)(F)F)[nH]6)cnc5n4C[C@@H]4CCO4)CC3)c2O1 (single isomer, unassigned) [Compound 224c] | 0.014 nM
10 | CC1(c2ccc(Cl)cc2F)Oc2cccc(C3CCN(Cc4nc5cc(-c6nnc(C(F)(F)F)[nH]6)ccc5n4C[C@@H]4CCO4)CC3)c2O1 (single isomer, unassigned) [Compound 229b] | 8.9 nM
11 | CC1(c2ccc(Cl)cc2F)Oc2cccc(C3CCN(Cc4nc5cc(-c6nnc(C(F)(F)F)[nH]6)ccc5n4C[C@@H]4CCO4)CC3)c2O1 (single isomer, unassigned) [Compound 229c] | 0.04 nM
12 | CC1(c2ccc(Cl)cc2F)Oc2cccc(C3CCN(Cc4nc5cc(-c6noc(=O)[nH]6)ccc5n4C[C@@H]4CCO4)CC3)c2O1 (single isomer, unassigned) [Compound 239b] | 0.04 nM
13 | CC1(c2ccc(Cl)cc2F)Oc2cccc(C3CCN(Cc4nc5cc(-c6noc(=O)[nH]6)ccc5n4C[C@@H]4CCO4)CC3)c2O1 (single isomer, unassigned) [Compound 239c] | 0.55 nM
14 | C[C@]1(c2ccc(Cl)cn2)Oc2cccc(C3CCN(Cc4nc5cc(-c6n[nH]c(C(F)(F)F)n6)cnc5n4C[C@@H]4CCO4)CC3)c2O1 (single isomer, unassigned) [Compound 333b] | 0.029 nM
15 | C[C@]1(c2ccc(Cl)cn2)Oc2cccc(C3CCN(Cc4nc5cc(-c6n[nH]c(C(F)(F)F)n6)cnc5n4C[C@@H]4CCO4)CC3)c2O1 (single isomer, unassigned) [Compound 333c] | 0.95 nM
16 | CC(=O)Nc1ccc2c(c1)nc(CN1CCC(c3cccc(OCc4ccc(Cl)cc4F)n3)CC1)n2C[C@@H]1CCO1 [Compound 101a, (S)—N-(2-((4-(6-((4-chloro-2-fluorobenzyl)oxy)pyridin-2-yl)piperidin-1-yl)methyl)-1-(oxetan-2-ylmethyl)-1H-benzo[d]imidazol-5-yl)acetamide] | 1.09 nM
17 | CCC(=O)Nc1ccc2c(c1)nc(CN1CCC(c3cccc(OCc4ccc(Cl)cc4F)n3)CC1)n2C[C@@H]1CCO1 [Compound 102a, (S)—N-(2-((4-(6-((4-chloro-2-fluorobenzyl)oxy)pyridin-2-yl)piperidin-1-yl)methyl)-1-(oxetan-2-ylmethyl)-1H-benzo[d]imidazol-5-yl)propionamide] | 0.539 nM
18 | O=C(Nc1ccc2c(c1)nc(CN1CCC(c3cccc(OCc4ccc(Cl)cc4F)n3)CC1)n2C[C@@H]1CCO1)C1CC1 [Compound 103a, (S)—N-(2-((4-(6-((4-chloro-2-fluorobenzyl)oxy)pyridin-2-yl)piperidin-1-yl)methyl)-1-(oxetan-2-ylmethyl)-1H-benzo[d]imidazol-5-yl)cyclopropanecarboxamide] | 0.309 nM
19 | O=C(Nc1ccc2c(c1)nc(CN1CCC(c3cccc(OCc4ccc(Cl)cc4F)n3)CC1)n2C[C@@H]1CCO1)C1COC1 [Compound 104a, (S)—N-(2-((4-(6-((4-chloro-2-fluorobenzyl)oxy)pyridin-2-yl)piperidin-1-yl)methyl)-1-(oxetan-2-ylmethyl)-1H-benzo[d]imidazol-5-yl)oxetane-3-carboxamide] | 0.207 nM
20 | CC(C)C(=O)Nc1ccc2c(c1)nc(CN1CCC(c3cccc(OCc4ccc(Cl)cc4F)n3)CC1)n2C[C@@H]1CCO1 [Compound 105a, (S)—N-(2-((4-(6-((4-chloro-2-fluorobenzyl)oxy)pyridin-2-yl)piperidin-1-yl)methyl)-1-(oxetan-2-ylmethyl)-1H-benzo[d]imidazol-5-yl)isobutyramide] | 0.175 nM
21 | O=C(CC1CC1)Nc1ccc2c(c1)nc(CN1CCC(c3cccc(OCc4ccc(Cl)cc4F)n3)CC1)n2C[C@@H]1CCO1 [Compound 106a, (S)—N-(2-((4-(6-((4-chloro-2-fluorobenzyl)oxy)pyridin-2-yl)piperidin-1-yl)methyl)-1-(oxetan-2-ylmethyl)-1H-benzo[d]imidazol-5-yl)-2-cyclopropylacetamide] | 1.19 nM
22 | COCCC(=O)Nc1ccc2c(c1)nc(CN1CCC(c3cccc(OCc4ccc(Cl)cc4F)n3)CC1)n2C[C@@H]1CCO1 [Compound 107a, (S)—N-(2-((4-(6-((4-chloro-2-fluorobenzyl)oxy)pyridin-2-yl)piperidin-1-yl)methyl)-1-(oxetan-2-ylmethyl)-1H-benzo[d]imidazol-5-yl)-3-methoxypropanamide] | 0.337 nM
23 | CS(=O)(=O)Nc1ccc2c(c1)nc(CN1CCC(c3cccc(OCc4ccc(Cl)cc4F)n3)CC1)n2C[C@@H]1CCO1 [Compound 108a, (S)—N-(2-((4-(6-((4-chloro-2-fluorobenzyl)oxy)pyridin-2-yl)piperidin-1-yl)methyl)-1-(oxetan-2-ylmethyl)-1H-benzo[d]imidazol-5-yl)methanesulfonamide] | 155 nM
24 | O=C(O)COc1ccc2c(c1)nc(CN1CCC(c3cccc(OCc4ccc(Cl)cc4F)n3)CC1)n2C[C@@H]1CCO1 [Compound 109a, (S)-2-((2-((4-(6-((4-chloro-2-fluorobenzyl)oxy)pyridin-2-yl)piperidin-1-yl)methyl)-1-(oxetan-2-ylmethyl)-1H-benzo[d]imidazol-5-yl)oxy)acetic acid] | 13.2 nM
25 | O=C(O)Cc1ccc2c(c1)nc(CN1CCC(c3cccc(OCc4ccc(Cl)cc4F)n3)CC1)n2C[C@@H]1CCO1 [Compound 110a, (S)-2-(2-((4-(6-((4-chloro-2-fluorobenzyl)oxy)pyridin-2-yl)piperidin-1-yl)methyl)-1-(oxetan-2-ylmethyl)-1H-benzo[d]imidazol-5-yl)acetic acid] | 15.9 nM
26 | O=C(O)c1ccc2c(c1)nc(CN1CC=C(c3cccc(OCc4ccc(Cl)cc4F)n3)CC1)n2C[C@@H]1CCO1 [Compound 111a, (S)-2-((6-((4-chloro-2-fluorobenzyl)oxy)-3′,6′-dihydro-[2,4′-bipyridin]-1′(2′H)-yl)methyl)-1-(oxetan-2-ylmethyl)-1H-benzo[d]imidazole-5-carboxylic acid] | 1.09 nM
27 | O=C(O)Cc1ccc2c(c1)nc(CN1CC=C(c3cccc(OCc4ccc(Cl)cc4F)n3)CC1)n2C[C@@H]1CCO1 [Compound 112a, (S)-2-(2-((6-((4-chloro-2-fluorobenzyl)oxy)-3′,6′-dihydro-[2,4′-bipyridin]-1′(2′H)-yl)methyl)-1-(oxetan-2-ylmethyl)-1H-benzo[d]imidazol-5-yl)acetic acid] | 6.35 nM
